According to publication PMC5615155 (Toxicology Reports, 2017):

Tests used:
solubility / dissolution = format: physicochemical
[1] = single-dose pharmacokinetics and oral bioavailability; format: in vivo, Sprague-Dawley rats; conditions: for AUClast / Cmax: S2218 in plasma
[2] = toxicokinetics in 13-week dietary study; format: in vivo, Sprague-Dawley rats; conditions: for bioavailability of S8069 in 13-week study: male and female, range
[3] = S8069 oral gavage, 7.83 mg/kg bw S2218 equiv., F
[4] = S8069 oral gavage, 7.83 mg/kg bw S2218 equiv., M
[5] = S8069 oral gavage, 78.3 mg/kg bw S2218 equiv., F
[6] = S8069 oral gavage, 78.3 mg/kg bw S2218 equiv., M
[7] = Day 7, 140 mg/kg bw diet, M + F
[8] = Day 91, 30 mg/kg bw diet, M + F
[9] = Day 91, 70 mg/kg bw diet, M + F
[10] = Day 91, 140 mg/kg bw diet, M + F

With `Cc1cc(C(=O)NC(C)(C)COc2cccc3c2C(N)=NS(=O)(=O)N3)cc(C)n1.O=S(=O)(O)O` [S8069] the solubility in water (solubility / dissolution) was “very soluble in water”, the “state in 1% methylcellulose dosing formulation” value (solubility / dissolution; S8069 at 10 mg/mL, S2218 at all dose levels) was “completely dissolved” and the “%F” value [1, 3] was 0.77%. It also gave a Tmax [1, 3] of 0.250 ± 0.0 h, a t1/2 [1, 3] of 1.15 ± 0.353 h and an AUClast [1, 3] of 26.4 ± 14.3 ng·h/mL. For the same compound, the Cmax [1, 3] was 24.4 ± 10.1 ng/mL, the “%F” value [1, 4] was 0.60% and the Tmax [1, 4] was 0.313 ± 0.125 h. It also gave a t1/2 [1, 4] of 0.786 ± 0.110 h, an AUClast [1, 4] of 23.6 ± 5.26 ng·h/mL and a Cmax [1, 4] of 21.4 ± 1.54 ng/mL. The “%F” value [1, 5] was 0.29%, the Tmax [1, 5] was 0.250 ± 0.0 h and the t1/2 [1, 5] was 0.969 ± 0.315 h. For the same compound, the AUClast [1, 5] was 99.1 ± 23.2 ng·h/mL, the Cmax [1, 5] was 106 ± 39.7 ng/mL and the “%F” value [1, 6] was 0.14%. It also gave a Tmax [1, 6] of 0.250 ± 0.0 h, a t1/2 [1, 6] of 0.860 ± 0.340 h and an AUClast [1, 6] of 55.6 ± 17.8 ng·h/mL. The Cmax [1, 6] was 60.5 ± 16.9 ng/mL, the “%F” value ([1]; oral, both test articles, male and female rats, all doses) was 0.14–0.77% and the “ACUM Ratio (dose-normalized AUC0-24h Day 91/Day 7)” value ([2]; 30 mg/kg bw, F) was 1.35. For the same compound, the “ACUM Ratio (dose-normalized AUC0-24h Day 91/Day 7)” value ([2]; 30 mg/kg bw, M) was 2.86, the “ACUM Ratio (dose-normalized AUC0-24h Day 91/Day 7)” value ([2]; 30 mg/kg bw, M + F) was 1.88 and the “ACUM Ratio (dose-normalized AUC0-24h Day 91/Day 7)” value ([2]; 70 mg/kg bw, F) was 0.821. For the same compound, the “ACUM Ratio (dose-normalized AUC0-24h Day 91/Day 7)” value ([2]; 70 mg/kg bw, M) was 1.07, the “ACUM Ratio (dose-normalized AUC0-24h Day 91/Day 7)” value ([2]; 70 mg/kg bw, M + F) was 0.954 and the “ACUM Ratio (dose-normalized AUC0-24h Day 91/Day 7)” value ([2]; 140 mg/kg bw, F) was 0.768. For the same compound, the “ACUM Ratio (dose-normalized AUC0-24h Day 91/Day 7)” value ([2]; 140 mg/kg bw, M) was 4.55, the “ACUM Ratio (dose-normalized AUC0-24h Day 91/Day 7)” value ([2]; 140 mg/kg bw, M + F) was 2.30 and the “F:M Ratio (AUC0-24h/Dose)” value ([2]; Day 7, 30 mg/kg bw) was 1.75. The AUC0-24h ([2]; Day 7, 30 mg/kg bw diet, F) was 253 ng·h/mL, the AUC0-24h/Dose ([2]; Day 7, 30 mg/kg bw diet, F) was 9.10 ng·h/mL/mg/kg and the Cmax ([2]; Day 7, 30 mg/kg bw diet, F) was 20.1 ng/mL. It also gave a Cmax/Dose ([2]; Day 7, 30 mg/kg bw diet, F) of 0.723 ng/mL/mg/kg, a Tmax ([2]; Day 7, 30 mg/kg bw diet, F) of 3 h and an AUC0-24h ([2]; Day 7, 30 mg/kg bw diet, M) of 134 ng·h/mL. It also gave an AUC0-24h/Dose ([2]; Day 7, 30 mg/kg bw diet, M) of 5.19 ng·h/mL/mg/kg, a Cmax ([2]; Day 7, 30 mg/kg bw diet, M) of 14.0 ng/mL and a Cmax/Dose ([2]; Day 7, 30 mg/kg bw diet, M) of 0.543 ng/mL/mg/kg. It also gave a Tmax ([2]; Day 7, 30 mg/kg bw diet, M) of 1 h, an AUC0-24h ([2]; Day 7, 30 mg/kg bw diet, M + F) of 194 ng·h/mL and an AUC0-24h/Dose ([2]; Day 7, 30 mg/kg bw diet, M + F) of 7.24 ng·h/mL/mg/kg. For the same compound, the Cmax ([2]; Day 7, 30 mg/kg bw diet, M + F) was 11.1 ng/mL, the Cmax/Dose ([2]; Day 7, 30 mg/kg bw diet, M + F) was 0.414 ng/mL/mg/kg and the Tmax ([2]; Day 7, 30 mg/kg bw diet, M + F) was 3 h. The “F:M Ratio (AUC0-24h/Dose)” value ([2]; Day 7, 70 mg/kg bw) was 0.914, the AUC0-24h ([2]; Day 7, 70 mg/kg bw diet, F) was 610 ng·h/mL and the AUC0-24h/Dose ([2]; Day 7, 70 mg/kg bw diet, F) was 9.33 ng·h/mL/mg/kg. It also gave a Cmax ([2]; Day 7, 70 mg/kg bw diet, F) of 44.4 ng/mL, a Cmax/Dose ([2]; Day 7, 70 mg/kg bw diet, F) of 0.679 ng/mL/mg/kg and a Tmax ([2]; Day 7, 70 mg/kg bw diet, F) of 0 h. The AUC0-24h ([2]; Day 7, 70 mg/kg bw diet, M) was 641 ng·h/mL, the AUC0-24h/Dose ([2]; Day 7, 70 mg/kg bw diet, M) was 10.2 ng·h/mL/mg/kg and the Cmax ([2]; Day 7, 70 mg/kg bw diet, M) was 32.8 ng/mL. The Cmax/Dose ([2]; Day 7, 70 mg/kg bw diet, M) was 0.522 ng/mL/mg/kg, the Tmax ([2]; Day 7, 70 mg/kg bw diet, M) was 6 h and the AUC0-24h ([2]; Day 7, 70 mg/kg bw diet, M + F) was 626 ng·h/mL. For the same compound, the AUC0-24h/Dose ([2]; Day 7, 70 mg/kg bw diet, M + F) was 9.77 ng·h/mL/mg/kg, the Cmax ([2]; Day 7, 70 mg/kg bw diet, M + F) was 34.3 ng/mL and the Cmax/Dose ([2]; Day 7, 70 mg/kg bw diet, M + F) was 0.535 ng/mL/mg/kg. The Tmax ([2]; Day 7, 70 mg/kg bw diet, M + F) was 12 h, the “F:M Ratio (AUC0-24h/Dose)” value ([2]; Day 7, 140 mg/kg bw) was 1.48 and the AUC0-24h ([2]; Day 7, 140 mg/kg bw diet, F) was 1640 ng·h/mL. It also gave an AUC0-24h/Dose ([2]; Day 7, 140 mg/kg bw diet, F) of 12.0 ng·h/mL/mg/kg, a Cmax ([2]; Day 7, 140 mg/kg bw diet, F) of 137 ng/mL and a Cmax/Dose ([2]; Day 7, 140 mg/kg bw diet, F) of 1.00 ng/mL/mg/kg. The Tmax ([2]; Day 7, 140 mg/kg bw diet, F) was 24 h, the AUC0-24h ([2]; Day 7, 140 mg/kg bw diet, M) was 1020 ng·h/mL and the AUC0-24h/Dose ([2]; Day 7, 140 mg/kg bw diet, M) was 8.16 ng·h/mL/mg/kg. It also gave a Cmax ([2]; Day 7, 140 mg/kg bw diet, M) of 57.0 ng/mL, a Cmax/Dose ([2]; Day 7, 140 mg/kg bw diet, M) of 0.456 ng/mL/mg/kg and a Tmax ([2]; Day 7, 140 mg/kg bw diet, M) of 6 h. It also gave an AUC0-24h [2, 7] of 1330 ng·h/mL, an AUC0-24h/Dose [2, 7] of 10.15 ng·h/mL/mg/kg and a Cmax [2, 7] of 86.5 ng/mL. For the same compound, the Cmax/Dose [2, 7] was 0.660 ng/mL/mg/kg, the Tmax [2, 7] was 6 h and the “bioavailability of S8069 in 13-week study” value ([2]; Day 7, food ad-mix) was 1.28–3.36%. For the same compound, the “F:M Ratio (AUC0-24h/Dose)” value ([2]; Day 91, 30 mg/kg bw) was 0.828, the AUC0-24h ([2]; Day 91, 30 mg/kg bw diet, F) was 376 ng·h/mL and the AUC0-24h/Dose ([2]; Day 91, 30 mg/kg bw diet, F) was 12.3 ng·h/mL/mg/kg. It also gave a Cmax ([2]; Day 91, 30 mg/kg bw diet, F) of 58.8 ng/mL, a Cmax/Dose ([2]; Day 91, 30 mg/kg bw diet, F) of 1.93 ng/mL/mg/kg and a Tmax ([2]; Day 91, 30 mg/kg bw diet, F) of 6 h. The AUC0-24h ([2]; Day 91, 30 mg/kg bw diet, M) was 427 ng·h/mL, the AUC0-24h/Dose ([2]; Day 91, 30 mg/kg bw diet, M) was 14.9 ng·h/mL/mg/kg and the Cmax ([2]; Day 91, 30 mg/kg bw diet, M) was 35.8 ng/mL. For the same compound, the Cmax/Dose ([2]; Day 91, 30 mg/kg bw diet, M) was 1.25 ng/mL/mg/kg, the Tmax ([2]; Day 91, 30 mg/kg bw diet, M) was 6 h and the AUC0-24h [2, 8] was 402 ng·h/mL. It also gave an AUC0-24h/Dose [2, 8] of 13.6 ng·h/mL/mg/kg, a Cmax [2, 8] of 47.3 ng/mL and a Cmax/Dose [2, 8] of 1.60 ng/mL/mg/kg. For the same compound, the Tmax [2, 8] was 6 h, the “F:M Ratio (AUC0-24h/Dose)” value ([2]; Day 91, 70 mg/kg bw) was 0.703 and the AUC0-24h ([2]; Day 91, 70 mg/kg bw diet, F) was 507 ng·h/mL. The AUC0-24h/Dose ([2]; Day 91, 70 mg/kg bw diet, F) was 7.67 ng·h/mL/mg/kg, the Cmax ([2]; Day 91, 70 mg/kg bw diet, F) was 27.8 ng/mL and the Cmax/Dose ([2]; Day 91, 70 mg/kg bw diet, F) was 0.421 ng/mL/mg/kg. For the same compound, the Tmax ([2]; Day 91, 70 mg/kg bw diet, F) was 0 h, the AUC0-24h ([2]; Day 91, 70 mg/kg bw diet, M) was 748 ng·h/mL and the AUC0-24h/Dose ([2]; Day 91, 70 mg/kg bw diet, M) was 10.9 ng·h/mL/mg/kg. The Cmax ([2]; Day 91, 70 mg/kg bw diet, M) was 60.4 ng/mL, the Cmax/Dose ([2]; Day 91, 70 mg/kg bw diet, M) was 0.880 ng/mL/mg/kg and the Tmax ([2]; Day 91, 70 mg/kg bw diet, M) was 3 h. It also gave an AUC0-24h [2, 9] of 627 ng·h/mL, an AUC0-24h/Dose [2, 9] of 9.32 ng·h/mL/mg/kg and a Cmax [2, 9] of 40.0 ng/mL. The Cmax/Dose [2, 9] was 0.594 ng/mL/mg/kg, the Tmax [2, 9] was 3 h and the “F:M Ratio (AUC0-24h/Dose)” value ([2]; Day 91, 140 mg/kg bw) was 0.248. It also gave an AUC0-24h ([2]; Day 91, 140 mg/kg bw diet, F) of 1120 ng·h/mL, an AUC0-24h/Dose ([2]; Day 91, 140 mg/kg bw diet, F) of 9.18 ng·h/mL/mg/kg and a Cmax ([2]; Day 91, 140 mg/kg bw diet, F) of 85.0 ng/mL. The Cmax/Dose ([2]; Day 91, 140 mg/kg bw diet, F) was 0.697 ng/mL/mg/kg, the Tmax ([2]; Day 91, 140 mg/kg bw diet, F) was 12 h and the AUC0-24h ([2]; Day 91, 140 mg/kg bw diet, M) was 4550 ng·h/mL. The AUC0-24h/Dose ([2]; Day 91, 140 mg/kg bw diet, M) was 37.0 ng·h/mL/mg/kg, the Cmax ([2]; Day 91, 140 mg/kg bw diet, M) was 358 ng/mL and the Cmax/Dose ([2]; Day 91, 140 mg/kg bw diet, M) was 2.91 ng/mL/mg/kg. It also gave a Tmax ([2]; Day 91, 140 mg/kg bw diet, M) of 12 h, an AUC0-24h [2, 10] of 2840 ng·h/mL and an AUC0-24h/Dose [2, 10] of 23.3 ng·h/mL/mg/kg. It also gave a Cmax [2, 10] of 222 ng/mL, a Cmax/Dose [2, 10] of 1.82 ng/mL/mg/kg and a Tmax [2, 10] of 12 h. For the same compound, the “bioavailability of S8069 in 13-week study” value ([2]; Day 91, food ad-mix) was 2.15–9.14%.
